Patent publication US9828339B2, “Biphenyl derivatives and methods for preparing same” (DONG-A ST CO., LTD, priority 2013, dated 2017)

What was measured:
[1] = target: T1, human muscarinic M3 receptor (Homo sapiens (Human), UniProt P20309); assay: Binding assay on human muscarinic M3 receptor ([3H]-methyl scopolamine displacement); conditions: membranes overexpressing human M3 receptor, Ki from IC50 by Cheng-Prusoff, read-out: Binding Affinity to M3 Receptor, Ki
Method in brief: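 Displacement of [3H]-methyl scopolamine from membranes overexpressing human M3, in Tris-HCl, 25 °C, 120 min; filter-bound radioactivity counted. Nonspecific binding with 5 μM atropine; Ki from IC50 via Cheng-Prusoff.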

[2] = target: T1, human muscarinic M3 receptor; assay: Antagonism assay on human muscarinic M3 receptor (carbachol-induced intracellular calcium, FLIPR Calcium 5, transfected Cos-7 cells); format: cell-based; conditions: functional inhibitory constant; carbachol-induced intracellular calcium in Cos-7 cells transfected with human M3 receptor
Experimental: [Experimental Example 2] Antagonism Assay on Human Muscarinic M3 Receptor
The antagonism assay for various compounds of the present invention was conducted on antagonism to human M3 receptor in Cos-7 cells that was transfected with plasmid coding human muscarinic M3 receptor. Test compounds in various concentrations were pre-treated to the cells for 3 minutes, and then the changes of intracellular calcium were measured after treating the same with carbachol (i.e. muscarinic receptor agonist). The FLIPR® Calcium 5 assay (Molecular Devices) and Flex3 device (Molecular Devices) were used to measure concentration of calcium. Amounts of calcium before and after carbachol treatment were set as 0% and 100% respectively. Inhibition rates (%) by the compounds for increase in intracellular calcium by carbachol were calculated. The antagonistic potency of the test compounds on human muscarinic M3 receptor was calculated as the functional inhibitory constant (Ki), which can be calculated from concentration (IC50) of compound inhibiting 50% of activity of carbachol according to Cheng and Prusoff equation.

[3] = system: rhythmic bladder contractions; assay: Rhythmic bladder contractions in rats (in vivo); parameters: species or system rat; conditions: 0.3 mpk, intravenous, female Sprague-Dawley rats; amplitude reduction of bladder contractions
Description: [Experimental Example 3] Experiment on Rhythmic Bladder Contractions in Rats (In Vivo)
Female Sprague-Dawley rat was halothane-anesthetized, and a polyethylene catheter was inserted through urethra lay down straight and fixed. Urine in bladder was excreted through the catheter by gently massaging abdomen of the rat, and then removed. A three-way stopcock was connected to the catheter and a pressure transducer was connected to one side of the three-way stopcock to measure pressure, and a syringe was installed at the other side to inject 37° C. of saline solution. The saline solution was slowly injected until regular bladder contractions occurred repeatedly. When regular bladder contractions occurred stably, test compounds were administered intravenously through the tail vein. Inhibitory effect of the test compounds was evaluated by measuring degree of amplitude reduction of bladder contractions.

T1 sequence (P20309 whole entry): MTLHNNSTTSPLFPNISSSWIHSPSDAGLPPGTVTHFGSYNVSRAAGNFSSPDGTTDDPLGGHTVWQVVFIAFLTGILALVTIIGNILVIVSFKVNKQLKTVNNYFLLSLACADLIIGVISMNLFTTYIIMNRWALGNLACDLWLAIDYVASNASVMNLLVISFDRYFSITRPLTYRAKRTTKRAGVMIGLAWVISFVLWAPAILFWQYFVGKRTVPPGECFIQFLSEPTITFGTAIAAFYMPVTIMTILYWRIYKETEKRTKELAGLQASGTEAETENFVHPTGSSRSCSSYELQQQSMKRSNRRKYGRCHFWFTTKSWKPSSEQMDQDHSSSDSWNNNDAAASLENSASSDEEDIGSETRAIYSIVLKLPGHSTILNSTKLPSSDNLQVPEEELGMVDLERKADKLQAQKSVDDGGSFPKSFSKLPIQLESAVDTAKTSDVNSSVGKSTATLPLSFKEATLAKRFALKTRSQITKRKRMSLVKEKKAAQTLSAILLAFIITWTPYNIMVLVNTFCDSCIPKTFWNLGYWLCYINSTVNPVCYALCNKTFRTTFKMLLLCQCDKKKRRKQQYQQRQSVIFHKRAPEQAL

| SMILES | Ki [1] [nM] | Ki [2] [nM] | Inhibition of Rhythmic bladder contraction in rats [3] [%] |
| --- | --- | --- | --- |
| CN1CCCC1CCOC(=O)Nc1ccccc1-c1cc(F)cc(F)c1 (stereo not shown) [Example 2, 2-(1-methylpyrrolidin-2-yl)ethyl(3′,5′-difluoro-[1,1′-biphenyl]-2-yl)carbamate] | 8.69 | 6.02 | 20.1 ± 3.1 |
| CN1CCCC1CCOC(=O)Nc1ccccc1-c1cccc(F)c1 (stereo not shown) [Example 4, 2-(1-methylpyrrolidin-2-yl)ethyl(3′-fluoro-[1,1′-biphenyl]-2-yl)carbamate] | 2.93 | 3.41 | 22.3 ± 4.9 |
| CN1CCCC1CCOC(=O)Nc1ccccc1-c1cccc(Cl)c1 (stereo not shown) [Example 8, 2-(1-methylpyrrolidin-2-yl)ethyl(3′-chloro-[1,1′-biphenyl]-2-yl)carbamate] | 1.33 | 3.02 | 23.2 ± 2.3 |
| CN1CCCC1CCOC(=O)Nc1ccc(F)cc1-c1ccc(F)cc1 (stereo not shown) [Example 19, 2-(1-methylpyrrolidin-2-yl)ethyl(4′,5-difluoro-[1,1′-biphenyl]-2-yl)carbamate] | 4.17 | 1.9 | 12.8 ± 3.0 |
| Cc1cccc(-c2cc(F)ccc2NC(=O)OCCC2CCCN2C)c1 (stereo not shown) [Example 22, 2-(1-methylpyrrolidin-2-yl)ethyl(5-fluoro-3′-methyl-[1,1′-biphenyl]-2-yl)carbamate] | 3.79 | 2.39 | 16.7 ± 1.7 |
| CN1CCCC1CCOC(=O)Nc1ccccc1-c1ccccc1F (stereo not shown) [Example 34, 2-(1-methylpyrrolidin-2-yl)ethyl(2′-fluoro-[1,1′-biphenyl]-2-yl)carbamate] | 19.6 | 2.64 | 20.1 ± 1.8 |
| CN1CCCC1CCOC(=O)Nc1ccc(F)cc1-c1cc(F)cc(Cl)c1 (stereo not shown) [Example 52, 2-(1-methylpyrrolidin-2-yl)ethyl (3′-chloro-5,5′-difluoro-[1,1′-biphenyl]-2-yl)carbamate] | 10 | 1.22 | 10.8 ± 0.8 |
| Cc1ccc(-c2cc(F)ccc2NC(=O)OCCC2CCCN2C)cc1C (stereo not shown) [Example 59, 2-(1-methylpyrrolidin-2-yl)ethyl(5-fluoro-3′,4′-dimethyl-[1,1′-biphenyl]-2-yl)carbamate] | 6.42 | 2.38 | 11.6 ± 1.9 |
| CN1CCCC1CCOC(=O)Nc1ccc(Cl)cc1-c1ccccc1 (stereo not shown) [Example 66, 2-(1-Methylpyrrolidin-2-yl)ethyl (5-chloro-[1,1′-biphenyl]-2-yl)carbamate] | 6.98 | 3.06 | 12.0 ± 1.4 |
| CN1CCCC1CCOC(=O)Nc1ccc(Cl)cc1-c1cccc(Cl)c1 (stereo not shown) [Example 70, 2-(1-Methylpyrrolidin-2-yl)ethyl(3′,5-dichloro-[1,1′-biphenyl]-2-yl)carbamate] | 8.17 | 1.95 | 9.7 ± 4.1 |
| CN1CCCC1CCOC(=O)Nc1ccc(Cl)cc1-c1ccc(F)c(Cl)c1 (stereo not shown) [Example 73, 2-(1-Methylpyrrolidin-2-yl)ethyl(3′,5-dichloro-4′-fluoro-[1,1′-biphenyl]-2-yl)carbamate] | 4.84 | 4.75 | 10.0 ± 1.0 |
| CN1CC[C@@H](COC(=O)Nc2ccc(F)cc2-c2cc(F)cc(F)c2)C1 [Example 95, (R)-(1-methylpyrrolidin-3-yl)methyl (3′,5,5′-trifluoro-[1,1′-biphenyl]-2-yl)carbamate] | 6.27 | 0.75 | 15.7 ± 0.8 |
| CN1CC[C@@H](COC(=O)Nc2ccccc2-c2cccc(Cl)c2)C1 [Example 117, (R)-(1-methylpyrrolidin-3-yl)methyl(3′-chloro-[1,1′-biphenyl]-2-yl)carbamate] | 1.6 | 0.34 | 15.4 ± 0.1 |
| CN1CC[C@H](COC(=O)Nc2ccc(F)cc2-c2ccc(F)cc2)C1 [Example 124, (S)-(1-methylpyrrolidin-3-yl)methyl(4′,5-difluoro-[1,1′-biphenyl]-2-yl)carbamate] | 8.12 | 2.86 | 21.2 ± 0.7 |
| CN1CC[C@H](COC(=O)Nc2ccc(F)cc2-c2ccc(Cl)c(Cl)c2)C1 [Example 128, (S)-(1-methylpyrrolidin-3-yl)methyl(3′,4′-dichloro-5-fluoro-[1,1′-biphenyl]-2-yl)carbamate] | 3.41 | 1.2 | 15.1 ± 3.4 |
| CN1CC[C@H](COC(=O)Nc2ccc(F)cc2-c2cc(F)cc(Cl)c2)C1 [Example 129, (S)-(1-methylpyrrolidin-3-yl)methyl(3′-chloro-5,5′-difluoro-[1,1′-biphenyl]-2-yl)carbamate] | 12.6 | 6.24 | 15.7 ± 1.4 |
| CN1CC[C@@H](COC(=O)Nc2ccccc2-c2cc(Cl)cc(Cl)c2)C1 [Example 131, (R)-(1-methylpyrrolidin-3-yl)methyl(3′,5′-dichloro-[1,1′-biphenyl]-2-yl)carbamate] | 12 | 1.86 | 17.8 ± 2.5 |
| CN1CC[C@@H](COC(=O)Nc2ccc(F)cc2-c2cc(F)cc(Cl)c2)C1 [Example 142, (R)-(1-methylpyrrolidin-3-yl)methyl(3′-chloro-5,5′-difluoro-[1,1′-biphenyl]-2-yl)carbamate] | 4.88 | 1.04 | 15.1 ± 3.4 |
| CN1CC[C@@H](COC(=O)Nc2ccc(Cl)cc2-c2cccc(Cl)c2)C1 [Example 145, (R)-(1-methylpyrrolidin-3-yl)methyl(3′,5-dichloro-[1,1′-biphenyl]-2-yl)carbamate] | 14.3 | 2.97 | 13.1 ± 3.0 |
| CN1CC[C@@H](COC(=O)Nc2ccc(Cl)cc2-c2ccc(F)c(Cl)c2)C1 [Example 146, (R)-(1-methylpyrrolidin-3-yl)methyl(3′,5-dichloro-4′-fluoro-[1,1′-biphenyl]-2-yl)carbamate] | 6.85 | 1.57 | 8.2 ± 2.9 |
| CN1CCC[C@H]1COC(=O)Nc1ccccc1-c1ccc(Cl)c(Cl)c1 [Example 166, (S)-(1-methylpyrrolidin-2-yl)methyl(3′,4′-dichloro-[1,1′-biphenyl]-2-yl)carbamate] | 9.04 | 1.33 | 10.2 ± 1.7 |
| CN1CCC[C@H]1COC(=O)Nc1cc(F)c(F)cc1-c1ccc(F)c(Cl)c1 [Example 181, (S)-(1-methylpyrrolidin-2-yl)methyl(3′-chloro-4,4′,5-trifluoro-[1,1′-biphenyl]-2-yl)carbamate] | 3.29 | 0.29 | 18.1 ± 2.6 |
| CN1CC[C@@H](COC(=O)Nc2ccc(F)cc2-c2cccc(F)c2)C1 [Example 194, (R)-(1-methylpyrrolidin-3-yl)methyl(3′,5-difluoro-[1,1′-biphenyl]-2-yl)carbamate] | 6.3 | 0.58 | 24.6 ± 2.6 |
| CN1CCC[C@H]1COC(=O)Nc1cc(F)ccc1-c1ccccc1 [Example 204, (S)-(1-methylpyrrolidin-2-yl)methyl (4-fluoro-[1,1′-biphenyl]-2-yl)carbamate] | 3.53 |  | 23.3 ± 6.6 |
| CN1CCC[C@H]1COC(=O)Nc1cc(F)ccc1-c1cccc(F)c1 [Example 205, (S)-(1-methylpyrrolidin-2-yl)methyl(3′,4-difluoro-[1,1′-biphenyl]-2-yl)carbamate] | 7.95 |  | 11.9 ± 3.7 |
| Cc1ccc(NC(=O)OC[C@@H]2CCCN2C)c(-c2cccc(F)c2)c1 [Example 207, (S)-(1-methylpyrrolidin-2-yl)methyl(3′-fluoro-5-methyl-[1,1′-biphenyl]-2-yl)carbamate] | 13.4 | 3.52 | 18.2 ± 3.7 |
